Laboratory results: publication PMC10178127, “Immunomodulatory Effects of the Pea Defensin Psd1 in the Caco-2/Immune Cells Co-Culture upon Candida albicans Infection” (International Journal of Molecular Sciences, 2023)
In brackets after ≈: the same amount, converted by molar mass. Like-named read-outs stand apart in the source and are kept apart here. *1 amine or outer side, *2 acyl side, *3 side chain or, on linkers, in order; H or OH if unused. Where a SMILES comes first, the peptide text is derived from it. Bridges are numbered along the chain shown (N, C = ends). [ ]: non-standard residue; d: D form. The star is where a group is joined. hTyr(3S-OH,4S-OH,3'-OSO3H) = N[C@H](C(=O)O)[C@H](O)[C@@H](O)c1ccc(O)c(OS(=O)(=O)O)c1; pTerphenylCO(4''-OnC5H11) = CCCCCOc1ccc(-c2ccc(-c3ccc(C(=O)*)cc3)cc2)cc1; Orn(4R-OH,5R-OH) = O=C([C@H](C[C@@H](O)[C@@H](O)N[*:3])N[*:1])[*:2]; hTyr(3S-OH,4S-OH) = N[C@H](C(=O)O)[C@H](O)[C@@H](O)c1ccc(O)cc1; Pro(3S-OH,4S-Me) = C[C@H]1CN[C@H](C(=O)O)[C@H]1O; X1 = CCCCCOc1ccc(-c2cc(-c3ccc(C(=O)*)cc3)no2)cc1; Gln(3R-OH) = NC(=O)C[C@@H](O)[C@H](N)C(=O)O; Hyp = O=C(O)[C@@H]1C[C@@H](O)CN1

Tests used:
[1] = test system: Candida albicans v47a3; experiment: Sensitivity to conventional antimycotics, broth dilution method; assay type: cell-based
Text: The clinical isolate of Candida albicans (v47a3) was collected from the patient with human immunodeficiency virus (HIV) infection and mucosal candidiasis and provided by G.N. Gabrichevsky Research Institute for Epidemiology and Microbiology (Moscow, Russia). This strain was susceptible to conventional antifungal agents except for a slight increase in the minimal inhibitory concentrations for triazole derivatives as was shown using the broth dilution method according to [31] (Supporting Materials, Tables S2 and S3). Strain stock was kept at −70 °C in 10% non-fat milk with 10% glycerol. Melittin (>98% pure) synthesized using a standard solid-phase method was provided by Dr. Sergey V. Sychev in M.M. Shemyakin and Yu.A. Ovchinnikov Institute of Bioorganic Chemistry of the Russian Academy of Sciences (Moscow, Russia).

[2] = test system: Caco-2 cells; details: known model substrates of efflux pumps; no reference given; cited from earlier work
[3] = test system: human peripheral blood mononuclear cells (PBMCs); experiment: Resazurin-based cell cytotoxicity assay; details: PBMCs, 24 h, read-out: concentration inducing 50% cell death
Procedure: The cytotoxic properties of the pea defensin Psd1 were investigated by resazurin-based cell cytotoxicity assay as previously described. In brief, PBMCs were seeded in 96-well plates at 2 × 10^6 cells per well in RPMI-1640 supplemented with 10% FBS and kept in a CO2 incubator for 24 h. After this, serial two-fold dilutions of defensin in a complete culture medium were added to the wells at final concentrations from 0.2 to 50 μM and the plates were incubated for 24 h. Resazurin (Sigma) was added at a final concentration of 70 µM, and the plates were incubated overnight (16–18 h). Fluorescent resorufin was registered using a 535/595 filter at PlateReader AF2200 (Eppendorf). Untreated cells were used as negative controls. Non-ionogenic detergent Triton X-100 and membrane-active peptide melittin from honeybee venom were used as positive controls. The cell viability was calculated according to the following equation: cell viability (%) = (Fsample/Fcontrol) × 100%. Cell lysis was monitored with an Olympus CKX41 microscope.

[4] = V47A3, MIC = 50% growth inhibition, broth dilution according to EUCAST E.DEF 7.3.2, read-out: MICs

CC[C@@H]([C@H](C)O)n1ncn(-c2ccc(N3CCN(c4ccc(OC[C@@H]5CO[C@@](Cn6cncn6)(c6ccc(F)cc6F)C5)cc4)CC3)cc2)c1=O [Posaconazole]
MIC [1, 4]: 0.12 µg/mL (≈ 0.171 µM)

CCCCCOc1ccc(-c2cc(-c3ccc(C(=O)N[C@H]4C[C@@H](O)[C@@H](O)NC(=O)[C@@H]5[C@@H](O)[C@@H](C)CN5C(=O)[C@H]([C@H](O)CC(N)=O)NC(=O)[C@H]([C@H](O)[C@@H](O)c5ccc(O)c(OS(=O)(=O)O)c5)NC(=O)[C@@H]5C[C@@H](O)CN5C(=O)[C@H]([C@@H](C)O)NC4=O)cc3)no2)cc1 [Micafungin] (X1-[Orn(4R-OH,5R-OH)]T[Hyp][hTyr(3S-OH,4S-OH,3'-OSO3H)][Gln(3R-OH)][Pro(3S-OH,4S-Me)]; lactam 1-C)
MIC ([1]; V47A3, read-out: MICs): 0.008 µg/mL (≈ 0.0063 µM)

O=C1c2c(O)ccc(O)c2C(=O)c2c(NCCNCCO)ccc(NCCNCCO)c21 [mitoxantrone]
efflux ratio (ER) [2]: > 10

Nc1[nH]c(=O)ncc1F [Flucytosine]
MIC [1, 4]: ≤ 0.06 µg/mL

C[C@H]1O[C@@H](O[C@H]2[C@@H](O)C[C@H](O[C@H]3[C@@H](O)C[C@H](O[C@H]4CC[C@@]5(C)[C@H](CC[C@@H]6[C@@H]5C[C@@H](O)[C@]5(C)[C@@H](C7=CC(=O)OC7)CC[C@]65O)C4)O[C@@H]3C)O[C@@H]2C)C[C@H](O)[C@@H]1O [digoxin]
efflux ratio (ER) [2]: > 10

CCCCCOc1ccc(-c2ccc(-c3ccc(C(=O)N[C@H]4C[C@@H](O)[C@@H](O)NC(=O)[C@@H]5[C@@H](O)[C@@H](C)CN5C(=O)[C@H]([C@@H](C)O)NC(=O)[C@H]([C@H](O)[C@@H](O)c5ccc(O)cc5)NC(=O)[C@@H]5C[C@@H](O)CN5C(=O)[C@H]([C@@H](C)O)NC4=O)cc3)cc2)cc1 [Anidulafungin] ({pTerphenylCO(4''-OnC5H11)}-[Orn(4R-OH,5R-OH)]T[Hyp][hTyr(3S-OH,4S-OH)]T[Pro(3S-OH,4S-Me)]; lactam 1-C)
MIC ([1]; V47A3, read-out: MICs): 0.03 µg/mL (≈ 0.0263 µM)

CCC(C)n1ncn(-c2ccc(N3CCN(c4ccc(OCC5COC(Cn6cncn6)(c6ccc(Cl)cc6Cl)O5)cc4)CC3)cc2)c1=O (stereo not shown) [Itraconazole]
MIC [1, 4]: 0.12 µg/mL (≈ 0.17 µM)

CC[C@]1(O)C[C@@H]2CN(CCc3c([nH]c4ccccc34)[C@@](C(=O)OC)(c3cc4c(cc3OC)N(C)[C@H]3[C@@](O)(C(=O)OC)[C@H](OC(C)=O)[C@]5(CC)C=CCN6CC[C@]43[C@@H]65)C2)C1 [vinblastine]
efflux ratio (ER) [2]: > 10

OC(Cn1cncn1)(Cn1cncn1)c1ccc(F)cc1F [Fluconazole]
MIC [1, 4]: 8 µg/mL (≈ 26.1 µM)

C[C@@H](c1ncncc1F)[C@](O)(Cn1cncn1)c1ccc(F)cc1F [Voriconazole]
MIC [1, 4]: 0.5 µg/mL (≈ 1.43 µM)

CC[C@H](C)C[C@H](C)CCCCCCCCC(=O)N[C@H]1C[C@@H](O)[C@@H](NCCN)NC(=O)[C@@H]2[C@@H](O)CCN2C(=O)[C@H]([C@H](O)CCN)NC(=O)[C@H]([C@H](O)[C@@H](O)c2ccc(O)cc2)NC(=O)[C@@H]2C[C@@H](O)CN2C(=O)[C@H]([C@@H](C)O)NC1=O [Caspofungin]
MIC ([1]; V47A3, read-out: MICs): 0.06 µg/mL (≈ 0.0549 µM)

C[C@@H]1[C@H](O)[C@@H](C)/C=C/C=C/C=C/C=C/C=C/C=C/C=C/[C@H](O[C@@H]2O[C@H](C)[C@@H](O)[C@H](N)[C@@H]2O)C[C@@H]2O[C@](O)(C[C@@H](O)C[C@@H](O)[C@H](O)CC[C@@H](O)C[C@@H](O)CC(=O)O[C@H]1C)C[C@H](O)[C@H]2C(=O)O [Amphotericin B]
MIC ([1]; V47A3, MIC = >90% inhibition of fungal growth, broth dilution according to EUCAST E.DEF 7.3.2, read-out: MICs): 0.5 µg/mL (≈ 0.541 µM)

melittin [reference compound]
IC50 [3]: 6.25 µM
